From paper PMC6006164, “Natural cyclopeptide RA-V inhibits the NF-κB signaling pathway by targeting TAK1” (Cell Death & Disease, 2018) come the findings set out here.

The subject of assay [1] is LPS-induced endotoxin shock. Put plainly: Mouse endotoxin shock model. It counts as in vivo, mice. How it is done:
The above results prompted us to explore the in vivo effect of RA-V on the NF-κB signaling pathway. We extended our study to the mouse endotoxin shock model, in which mice were intraperitoneally injected with LPS (10 mg/kg or 20 mg/kg) and evaluated for changes by examining physiological parameters induced by the inflammatory response.
First, the mice were intravenously injected with RA-V micelles (0.25 mg/kg body weight) or control micelles at three time points: 52, 28, and 4 h before they were intraperitoneally injected with phosphate-buffered saline (PBS) or LPS (10 mg/kg). One hour after LPS injection, we examined proinflammatory cytokines (IL-6 and TNF-α) production at the transcriptional and translational levels. […] As expected, after receiving the LPS injection, all of the control mice died within 36 h, whereas 60% of the RA-V-treated mice survived (Fig. 2d). To further confirm the in vivo effect of RA-V on the NF-κB pathway, we performed the endotoxin shock model on NF-κB-luciferase transgenic mice.
Fig. 2 RA-V prevents endotoxic shock and inhibits NF-κB activation in vivo. a–c RA-V prevents endotoxic shock in vivo. Mice (n = 6 per group) were intravenously injected with RA-V micelles (0.25 mg/kg body weight) or control micelles 52, 28, and 4 h before an intraperitoneal injection of LPS (10 mg/kg). One hour later, the relative levels of IL-6 and TNF-α mRNAs in the liver were assessed by quantitative RT-PCR (a), the serum IL-6 and TNF-α levels were quantified by ELISA (b), and the expression of p65 and IκBα phosphorylation in the liver were measured by immunoblot analysis c. d RA-V improved animal survival. Mice (n = 20 per group) were intravenously injected with RA-V micelles (0.25 mg/kg body weight) or control micelles 52, 28, and 4 h before intraperitoneal injection of LPS (20 mg/kg). Animal survival was recorded in 2–3 hours intervals. e RA-V inhibits NF-κB activation in vivo. The NF-κB-luc transgenic mice (n = 4 per group) were intravenously injected with RA-V micelles (0.25 mg/kg body weight) or control micelles 52, 28, and 4 h before intraperitoneal injection with LPS (10 mg/kg). NF-κB-luc transgenic mice were photographed at different time points and representative images are shown. The bioluminescent signals from all of the mice were detected and quantified. The data are presented as the means ± S.D. *, p < 0.05; **, p < 0.01

The subject of another assay is NF-κB signaling pathway. Put plainly: NF-κB-dependent luciferase reporter (5×κB-luciferase/pTK-Renilla), TNF-α-induced, HeLa cells. Type of assay: cell-based. The note with it: RA-V 6 h, then 10 ng/mL TNF-α 2 h, three independent experiments. How it is done: Fig. 1 RA-V inhibits TNF-α- and LPS-induced activation of NF-κB. a Chemical structure of RA-V. b RA-V inhibited the NF-κB signaling pathway in a dose-dependent manner. HEK293T or HeLa cells were transfected with the 5 × κB-luciferase and pTK-Renilla reporters. Twenty-four hours after transfection, the cells were incubated with various concentrations of RA-V for 6 h, and then treated with 10 ng/mL TNF-α for 2 h before the luciferase activity assay and MTT assay. c RA-V reduced TNF-α-induced expression of NF-κB target genes. HEK293T or HeLa cells were treated with various concentrations of RA-V for 24 h and stimulated with 10 ng/mL TNF-α for 2 h. The expression of the NF-κB target genes, IL-8, MCP-1, and E-selectin was measured by quantitative RT-PCR and normalized to GADPH expression. d RA-V inhibited TNF-α-induced p65 phosphorylation, IκBα phosphorylation and IκBα degradation. HEK293T or HeLa cells were incubated with various concentrations of RA-V for 24 h and treated with 10 ng/mL TNF-α for 10 min. The cell lysates were prepared and subjected to western blot analysis with the indicated antibodies. e RA-V inhibited TNF-α-induced IL-8 production. […] The expression of IL-6 was measured. h RA-V inhibited LPS-induced p65 phosphorylation, IκBα phosphorylation. […] The protein expression was measured. i RA-V inhibited LPS-induced IL-6 production. […] The expression of IL-6 was measured. […]

[2] abbreviates: RA-V micelles 0.25 mg/kg i.v. 52, 28, 4 h before LPS 10 mg/kg i.p., 1 h after LPS, n = 6.

As a reminder, the IC50 is the concentration needed to halve the response being measured. Lower therefore signals greater potency. For the substance RA-V, in assay [1] (setting [2]), the “IL-6 and TNF-α in the serum (ELISA)” value was “reduced expression”; the “expression of IL-6 and TNF-α mRNAs in liver tissue” value is on record as “significantly decreased”. For the same substance, the “phosphorylation of IκBα and p65 in liver tissue” value in assay [1] (RA-V micelles 0.25 mg/kg i.v. 52, 28, 4 h before LPS 10 mg/kg i.p., immunoblot) is listed as “clearly inhibited”. Further, the “survival of mice after lethal dose of LPS” value in assay [1] (RA-V micelles 0.25 mg/kg i.v. 52, 28, 4 h before LPS 20 mg/kg i.p., n = 20, all control mice died within 36 h) is reported as 60%. In the assay with NF-κB signaling pathway, this substance showed an IC50 of 171 nM.
